According to publication PMC3263612, “Development of an Oral Form of Azacytidine: 2′3′5′Triacetyl-5-Azacytidine” (Chemotherapy Research and Practice, 2011):
In brackets after ≈: the same amount, converted by molar mass.

Assays:
L1210 cells = system: L1210 cells; set-up: method as in PMID 6083417; details: published value, confirmed by MTS assay; cited from earlier work
[1] = Pharmacokinetics and metabolism of TAC in mice; type: in vivo, C57/BL6 mice; details: ACT 25 mg/kg i.v., analyte ACT
Protocol: To monitor the in vivo absorption, distribution, and metabolism of TAC, a highly sensitive LC/MS/MS analytical method was developed that allows the quantitation of concentrations as low as 10 ng/mL of TAC and its metabolites. The samples were prepared by adding 200 μL of plasma to 400 μL of cold acetonitrile, vortexed, and centrifuged at 14,000 rpm for 10 minutes. The supernatant was placed into a 10 × 75 mm glass test tube and evaporated to 50 μL under nitrogen at 37°C. The residue was then diluted with 1 mL of 2% phosphoric acid and vortexed for 10 seconds at 3,000 rpm.
Solid phase extraction was conducted using a Varian Bond Elute PLEXA PCX 1 mL columns placed on a vacuum manifold. Columns were activated by adding 1 mL of MeOH followed by 1 mL H2O and 1 mL of 2% phosphoric acid. All samples were allowed to drip by gravity flow. The extraction columns were then washed sequentially with 1 mL 2% phosphoric acid, 1 mL H2O, and 1 mL MeOH/AcCN (1/1) and eluted into a 10 × 75 mm glass test tube containing 50 μL of 25% formic acid in MeOH with 2 × 600 μL of 2% NH4OH in MeOH/AcCN (1/1). The liquid was then evaporated to dryness with nitrogen at 37°C, and 100 μL of mobile phase A was added and vortexed for 10 seconds at 3,000 rpm and transferred to LC autosampler vials at 4°C.
HPLC separation was conducted on a reverse phase C18 column (Varian Pursuit C18, 3 micron particle size; 100 mm × 2.0 mm) using a Shimadzu SIL-HTc controller with dual LC-20AD pumps and DGU-20A3 degasser. The separation was achieved using a gradient of Mobile Phase A: 0.1% Formic Acid and Mobile Phase B: 0.1% Formic Acid, 90% MeOH with a flow rate of 400 μL/min at 40°C over 10 minutes. MS/MS fragmentation was performed on an Applied Biosystems API 3200 instrument with a Turbo V Ion Spray ion source and Positive ion polarity.
To evaluate the in vivo pharmacokinetic properties of TAC, C57/BL6 female mice of 20 g body weight were dosed with 38 mg/kg TAC p.o. (equimolar dose to 25 mg/kg of ACT) or 25 mg/kg ACT i.v. via tail vein injection. TAC and ACT were solubilized in 1X PBS immediately before administration and dosed at 0.01 mL/g fasted body weight. Blood samples (two time points per animal, three animals per time point) were obtained via retro-orbital bleeding with Natelson pipettes at 0.5, 1, 2, 4, 8, and 24 hours after drug administration. The collected blood was then centrifuged for 4 minutes at 13,000 g. Plasma was immediately extracted with cold acetonitrile and stored at −80°C until LC/MS/MS analysis.
Noncompartmental plasma pharmacokinetic parameters for TAC prodrug and ACT after oral TAC or i.v ACT administrations were estimated using the sparse sampling option in WinNonlin Software version 4.1 (Pharsight Corp., Mountain View, Calif, USA). Briefly, the WinNonlin sparse sampling option applies the linear trapezoidal rule for area under the concentration-time curve (AUC) calculations and generates a standard error for the mean AUC estimate that accounts for correlations in the data resulting from repeated sampling of individual mice. Parameters of interest included the AUC from time 0 to the last measurable concentration (AUClast), observed peak concentration after oral administration (Cmax), estimated peak concentration after i.v. administration (C0), mean residence time to the last measurable concentration (MRTlast), and the half-life of the terminal phase (T1/2). To assess the multiphasic decline in plasma concentrations, an alpha (T1/2α) half-life was also estimated using a log-linear regression of the mean ACT concentrations through 2 hours after dosing.

[2] = system: L1210 lymphocytic leukemia; assay: In vivo L1210 lymphocytic leukemia model; set-up: species or system BDF1 mice
Protocol: The in vivo L1210 lymphocytic leukemia model in C57BL/6 × DBA/2 F1(BDF1) female mice was used to evaluate the in vivo antiproliferative effect of TAC. L1210 cells were carried in BDF1 mice by weekly i.p. (intraperitoneal) passages. Leukemia cells from ascites fluid were diluted appropriately in […] medium and injected i.p. (1×10^5 cells/0.1 mL/mouse) into recipient mice. A daily oral administration of TAC (38 mg/kg via oral gavage) or ACT (25 mg/kg administered i.p.) diluted in PBS was given to leukemic BDF1 mice starting 24 hours from the inoculation of L1210 cells for a total of 5 days. Compounds were prepared fresh daily. A group of untreated leukemic mice received sterile water for injections and served as controls.

P15 promoter methylation = assay: p15INK4B methylation status (EpiTect Methyl qPCR) in L1210 cells; type: cell-based, Mouse; details: 48 hours
Protocol: Mouse leukemia cells (L1210) were purchased from ATCC. The published IC50 value for ACT (0.2 uM) was first confirmed using the Promega CellTiter MTS assay. […] Genomic DNA was isolated after 48 hours using the Sigma GenElute Genomic DNA Kit, including the RNase treatment step to ensure no RNA carryover. The methylation status of p15INK4B was determined using a predesigned primer set and the EpiTect Methyl qPCR Assays MethylScreen technology (Qiagen, Frederick, Md, USA).

[3] = LogP determination, shake-flask water/octanol; type: physicochemical; details: un-ionized, read-out: experimental LogP
Protocol: The OSIRIS Property Explorer software was used to generate initial cLogP values. […] The pH of the water was 2 units above the pKa of the compound, preventing ionization. The experiment was conducted using the shake-flask method, after allowing octanol and water to equilibrate for 24 hours at 25°C. The initial drug concentration in water was 0.2 mM. Tubes were rotated at a 45 degree angle for 10 minutes with a 3 second rotation. The test was performed in a constant environment of 20°C–25°C. Tubes were centrifuged at 1000 g for 10 minutes, and the octanol phase was extracted. The UV/Visible absorption spectrum was evaluated from 550 nm to 210 nm to determine the absorption maximum. The analyte concentration was determined and the LogP calculated: Log = log(concentration in octanol/concentration in water).

[4] = oral film-coated formulation, 80 mg dose, cited from earlier work
Solubility at various pH = type: physicochemical
Protocol: The solubility of TAC in comparison to ACT was evaluated at various pH. TAC and ACT were equally soluble at pH1 (40 mg/mL) and pH3 (25 mg/mL), while TAC was more soluble than ACT at pH5 (30 mg/mL versus 15 mg/mL) and pH7 (30 mg/mL versus 10 mg/mL). […] At pH 1, we observed a moderate hydrolysis of TAC (26%) to the mono- and diesters in the first 3 hours of incubation increasing to 60% after 6 hrs. However, after 24, 99% of TAC was hydrolyzed, including 46% to the parent compound, ACT.

[5] = Drug stability at pH 1, 3, 5 and 7.4 (LC/MS/MS); type: physicochemical; details: throughout the pH range, maximum stability at pH 1; data not shown
Protocol: ACT and TAC stabilities were determined after incubation at pH1 (2% Phosphoric acid), pH3 (0.1% Formic Acid), pH5 (K3PO4), and pH7.4 (Dulbecco's PBS). 100 ng of each compound was resuspended in 1.2 mL total volume, and 200 μL samples taken at 1, 3, 6, 29, and 48 hr. Each pH point was repeated 6 times in 2 dram vials with Teflon-lined screw caps at room temperature. Samples were extracted by solid-phase extraction using 100 ng decitabine as an internal standard and analyzed by tandem mass spectroscopy as described above.

global DNA methylation = assay: Global methylation detection assay in mouse tissues; type: in vivo, C57BL6 mice; set-up: unit not given here; details: 5 days ACT 25 mg/kg or TAC 38 mg/kg p.o., dot blot
Protocol: 24 hours following drug administration, snap-frozen mouse tissues were homogenized and genomic DNA isolated using Promega's Wizard Genomic DNA Purification Kit. 100 ng of EcoRI linearized genomic DNA was spotted onto PVDF membrane. The membrane was air-dried and repermeabilized according to manufacturer's instructions. Nonspecific binding was blocked using 5% milk in PBS-T and washed twice in PBS-T for 5 minutes. The membrane was incubated with primary antibody (1 : 1000 anti-5-methylcytosine in PBS-T, Calbiochem) for 1 hour then washed four times for five minutes each with PBS-T. The membrane was incubated with the HRP-conjugated secondary antibody for 1 hour and washed four times for five minutes each with PBS-T. Signal intensity following ECL detection was quantitated using KODAK Image Station software. Assay results were confirmed using EpiGentek's Methylamp Global DNA Methylation Quantification Kit per manufacturer's instructions.
In an in vivo experiment designed to evaluate the effect of a prolonged administration of TAC on global methylation, TAC (38 mg/kg p.o.) or ACT (25 mg/kg i.p.) diluted in PBS was administered to C57BL6 mice every 24 hours for 5 consecutive days (four animals per group). […] The positive results in gut and spleen were confirmed using the EpiGentek's Methylamp Global DNA Methylation Quantification Kit.

[6] = female, C57/BL6, mouse, plasma, iv
[7] = tissue 24 hours after treatment

Nc1ncn([C@@H]2O[C@H](CO)[C@@H](O)[C@H]2O)c(=O)n1 [ACT, 5-azacitidine]
IC50 (L1210 cells): 200 nM
T1/2α ([1]; data through 2 hours): 0.32 h
Cmax [1, 6]: 81.1 µM
MRT last [1, 6]: 1.1 h
C0 ([1]; female, C57/BL6, mouse, plasma, iv, estimated peak concentration): 212 µM
half-life ([1]; female, C57/BL6, mouse, plasma, iv, terminal phase): 6.8 h
AUC(0-t) ([1]; female, C57/BL6, mouse, plasma, iv, mean (standard error)): 126 µM·h
survival ([2]; azacitidine 25 mg/kg i.p. (maximum tolerated dose) daily for 5 days): 17 days
increased lifespan ([2]; azacitidine 25 mg/kg i.p. daily for 5 days): 112%
weight reduction ([2]; azacitidine 25 mg/kg i.p., L1210-bearing mice): 16%
decrease of P15 promoter methylation (P15 promoter methylation; 0.1 uM ACT): 39% (±3)
decrease of P15 promoter methylation (P15 promoter methylation; 10 uM ACT): 49% (±17)
logP [3]: -2.32
bioavailability ([4]; four human subjects): 17.4%
mean plasma half-life ([4]; human): 0.39 h
solubility (Solubility at various pH; pH 1, pH1): 40 mg/mL (≈ 164 mM)
solubility (Solubility at various pH; pH 3, pH3): 25 mg/mL (≈ 102 mM)
solubility (Solubility at various pH; pH 5, pH5): 15 mg/mL (≈ 61.4 mM)
solubility (Solubility at various pH; pH 7, pH7): 10 mg/mL (≈ 40.9 mM)
stability of azacitidine in solution [5]: significant degradation
densitometry of methylation level, Gut Average (global DNA methylation; four animals): 29
densitometry of methylation level, Spleen Average (global DNA methylation; four animals): 50
densitometry of methylation level, Gut.1 (global DNA methylation; [7]): 37
densitometry of methylation level, Gut.2 (global DNA methylation; [7]): 14
densitometry of methylation level, Gut.3 (global DNA methylation; [7]): 34
densitometry of methylation level, Gut.4 (global DNA methylation; [7]): 33
densitometry of methylation level, Spleen.1 (global DNA methylation; [7]): 54
densitometry of methylation level, Spleen.2 (global DNA methylation; [7]): 71
densitometry of methylation level, Spleen.3 (global DNA methylation; [7]): 48
densitometry of methylation level, Spleen.4 (global DNA methylation; [7]): 29
